The data set concerns rodent carcinogenicity bioassays, tumor incidence. Description: CCRIS carcinogenicity studies. The procedure, abridged: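 Archive of carcinogenicity, mutagenicity, tumor promotion and tumor inhibition results drawn from journals, NCI reports and other sources, expert-reviewed; covers 1985-2011 and is no longer updated.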

Structures are written as SMILES. Calls of active or inactive are those of the source. The rule behind the calls is not given here.

Consider `Cc1cc(-c2ccccc2C)ccc1N`, for which the carcinogen call was “active; positive” (Species: HAMSTER, Strain/Sex: SYRIAN/FEMALE, Route: SUBCUTANEOUS, Dose: 0, 100 MG/KG BW 1/WK FOR 20 WK (STUDY DURATION: 50 WK), Tumor Site: Type of Lesion: URINARY BLADDER: CARCINOMA); “active; positive” (Species: HAMSTER, Strain/Sex: SYRIAN/FEMALE, Route: SUBCUTANEOUS, Dose: 0.15 MMOL/KG IN PEANUT OIL 1/WK FOR 37 WK (TOTAL DOSE: 5.6 MMOL/KG), Tumor Site: Type of Lesion: URINARY BLADDER: TRANSITIONAL CELL CARCINOMA, SQUAMOUS CELL CARCINOMA); “active; positive” (Species: HAMSTER, Strain/Sex: SYRIAN/MALE,FEMALE, Route: SUBCUTANEOUS, Dose: 100 MG/KG 1/WK FOR 52 WK, Tumor Site: Type of Lesion: URINARY BLADDER: PAPILLOMA, CARCINOMA); “active; positive” (Species: HAMSTER, Strain/Sex: SYRIAN/MALE, Route: SUBCUTANEOUS, Dose: 0, 100 MG/KG BW 1/WK FOR 20 WK (STUDY DURATION: 50 WK), Tumor Site: Type of Lesion: URINARY BLADDER: CARCINOMA); “active; positive” (Species: HAMSTER, Strain/Sex: SYRIAN/MALE, Route: SUBCUTANEOUS, Dose: 0, 100 MG/KG IN PEANUT OIL 1/WK FOR 8 WK, THEN ONCE EVERY 2 WK FOR 18 MO (TOTAL MAXIMUM DOSE: 555 MG), Tumor Site: Type of Lesion: URINARY BLADDER: TRANSITIONAL CELL CARCINOMA, FORESTOMACH: SQUAMOUS CELL PAPILLOMA, INTESTINES (SMALL): ADENOCARCINOMA;, Tumor Site: Type of Lesion: URINARY BLADDER: TRANSITIONAL CELL CARCINOMA, FORESTOMACH: SQUAMOUS CELL PAPILLOMA, INTESTINES (SMALL): ADENOCARCINOMA); “active; positive” (Species: HAMSTER, Strain/Sex: SYRIAN/MALE, Route: SUBCUTANEOUS, Dose: 0.15 MMOL/KG IN PEANUT OIL 1/WK FOR 37 WK (TOTAL DOSE: 5.6 MMOL/KG), Tumor Site: Type of Lesion: URINARY BLADDER: TRANSITIONAL CELL CARCINOMA). Further, the carcinogen call is “active; positive” (Species: RAT, Strain/Sex: ALBINO/MALE, Route: SUBCUTANEOUS, Dose: 2.8-3.5 G/KG, Tumor Site: Type of Lesion: INTESTINES, SALIVARY GLAND, EAR (DUCT), Tumor Site: Type of Lesion: INTESTINES, SALIVARY GLAND, EAR (DUCT)); “active; positive” (Species: RAT, Strain/Sex: F344/MALE, Route: SUBCUTANEOUS, Dose: 0, 150 MG/KG 1/WK FOR 3 WK FOLLOWED BY HIGH FAT DIET (20% CORN OIL) BEGINNING 12 WK POST LAST CARCINOGEN DOSE AND CONTIN, Tumor Site: Type of Lesion: PANCREAS: ADENOMA OR CARCINOMA); “active; positive” (Species: RAT, Strain/Sex: F344/MALE, Route: SUBCUTANEOUS, Dose: 0, 150 MG/KG 1/WK FOR 3 WK FOLLOWED BY NORMAL FAT DIET (4.5% CORN OIL) BEGINNING 12 WK POST LAST CARCINOGEN DOSE AND CON, Tumor Site: Type of Lesion: PANCREAS: ADENOMA OR CARCINOMA); “active; positive” (Species: RAT, Strain/Sex: F344/MALE, Route: SUBCUTANEOUS, Dose: 20 MG/KG 1/WK FOR 42 WK OR 50 MG/KG 1/WK FOR 20 WK, Tumor Site: Type of Lesion: PROSTATE GLAND: CARCINOMA (IN SITU)); “active; positive” (Species: RAT, Strain/Sex: WISTAR/FEMALE, Route: SUBCUTANEOUS, Dose: 2 MG/100 G 5/WK FOR 12 WK, Tumor Site: Type of Lesion: MAMMARY GLAND: CARCINOMA); “active; positive” (Species: RAT, Strain/Sex: WISTAR/MALE,FEMALE, Route: SUBCUTANEOUS, Dose: 2 MG/100 G 5/WK FOR LIFE, Tumor Site: Type of Lesion: INTESTINES (LARGE): POLYPLOID TUMOR (MULTIPLE)).

On to `COC(=O)COc1ccc(Cl)cc1`, for which the carcinogen call (Species: NEWT, Route: IMMERSION, Dose: 0, 100, 200, 400 PPM 4 D/WK FOR 12 MO (STUDY DURATION: 24 MO), Dose: 0, 100, 200, 400 PPM 4 D/WK FOR 12 MO (STUDY DURATION: 24 MO)) was “inactive; negative”.

Consider `O=C(Nc1ccccc1)Nc1ccnc(Cl)c1`, for which the carcinogen call (Species: Mouse, Strain/Sex: CD-1/Female (60/Group), Route: Oral, Dose: 0, 10, 1000 mg/kg/day of 96.9% forchlorfenuron in diet for 18 mo, study duration 18 mo, Dose: 0, 10, 1000 mg/kg/day of 96.9% forchlorfenuron in diet for 18 mo, study duration 18 mo) was “inactive; negative”; the carcinogen call (Species: Mouse, Strain/Sex: CD-1/Male (60/Group), Route: Oral, Dose: 0, 10, 1000 mg/kg/day of 96.9% forchlorfenuron in diet for 18 mo, study duration 18 mo, Dose: 0, 10, 1000 mg/kg/day of 96.9% forchlorfenuron in diet for 18 mo, study duration 18 mo) is “inactive; negative”; the carcinogen call (Species: Rat, Strain/Sex: Strain not specified by Department of Pesticides Regulation/Female (70/Group), Route: Oral, Dose: 0, 9, 122, 518 mg/kg/day of 98.5% forchlorfenuron in diet for up to 2 yr, study duration 2 yr, Dose: 0, 9, 122, 518 mg/kg/day of 98.5% forchlorfenuron in diet for up to 2 yr, study duration 2 yr) is “inactive; negative”; the carcinogen call (Species: Rat, Strain/Sex: Strain not specified by Department of Pesticides Regulation/Male (70/Group), Route: Oral, Dose: 0, 7, 93, 352 mg/kg/day of 98.5% forchlorfenuron in diet for up to 2 yr, study duration 2 yr, Dose: 0, 7, 93, 352 mg/kg/day of 98.5% forchlorfenuron in diet for up to 2 yr, study duration 2 yr) is “inactive; negative”.

On to `[Cl][Fe]([Cl])[Cl]`, for which the carcinogen call is, setting by setting: (Species: RAT, Strain/Sex: F344/FEMALE, Route: ORAL, Dose: 0, 0.25, 0.5% IN DRINKING WATER FOR 104 WK (STUDY DURATION: 112 WK), Dose: 0, 0.25, 0.5% IN DRINKING WATER FOR 104 WK (STUDY DURATION: 112 WK)) “inactive; negative”; (Species: RAT, Strain/Sex: F344/MALE, Route: ORAL, Dose: 0, 0.25, 0.5% IN DRINKING WATER FOR 104 WK (STUDY DURATION: 112 WK), Dose: 0, 0.25, 0.5% IN DRINKING WATER FOR 104 WK (STUDY DURATION: 112 WK)) “inactive; negative”.

On to `OO`, for which, for the setting “Species: MOUSE, Strain/Sex: C57BL/MALE,FEMALE, Route: ORAL, Dose: 0, 0.1%, 0.4% IN DRINKING WATER (STUDY DURATION: 108 WK), Dose: 0, 0.1%, 0.4% IN DRINKING WATER (STUDY DURATION: 108 WK), Tumor Site: Type of Lesion: DUODENUM: ADENOMA, ADENOCARCINOMA”, the carcinogen call is “active; positive”.

Turning to `ON=C1CCCC1`, the carcinogen call (Species: RAT, Strain/Sex: F344/MALE, Route: GAVAGE, Dose: 0, 2 MMOL/KG BW 1/WK FOR 50 WK (STUDY DURATION: 83 WK)) was “inactive; negative”.

As to `OC[C@H]1O[C@@H]2O[C@H]3[C@H](O)[C@@H](O)[C@@H](O[C@H]4[C@H](O)[C@@H](O)[C@@H](O[C@H]5[C@H](O)[C@@H](O)[C@@H](O[C@H]6[C@H](O)[C@@H](O)[C@@H](O[C@H]7[C@H](O)[C@@H](O)[C@@H](O[C@H]8[C@H](O)[C@@H](O)[C@@H](O[C@H]1[C@H](O)[C@H]2O)O[C@@H]8CO)O[C@@H]7CO)O[C@@H]6CO)O[C@@H]5CO)O[C@@H]4CO)O[C@@H]3CO`, the carcinogen call is “inactive; negative” (Species: MOUSE, Strain/Sex: CD-1/FEMALE, Route: ORAL, Dose: 0, 25, 75, 225, 675 MG/KG/D IN DIET FOR 105 WK (STUDY DURATION: 105 WK), Dose: 0, 25, 75, 225, 675 MG/KG/D IN DIET FOR 105 WK (STUDY DURATION: 105 WK)); “inactive; negative” (Species: MOUSE, Strain/Sex: CD-1/MALE, Route: ORAL, Dose: 0, 25, 75, 225, 675 MG/KG/D IN DIET FOR 93 WK (STUDY DURATION: 93 WK), Dose: 0, 25, 75, 225, 675 MG/KG/D IN DIET FOR 93 WK (STUDY DURATION: 93 WK)); “inactive; negative” (Species: RAT, Strain/Sex: F344/FEMALE, Route: ORAL, Dose: 0, 2.5, 5% IN DIET FOR 104 WK (STUDY DURATION: 109 WK), Dose: 0, 2.5, 5% IN DIET FOR 104 WK (STUDY DURATION: 109 WK)); “inactive; negative” (Species: RAT, Strain/Sex: F344/FEMALE, Route: ORAL, Dose: 0, 25, 75, 225, 675 MG/KG/D IN DIET FOR 130 WK (STUDY DURATION: 130 WK), Dose: 0, 25, 75, 225, 675 MG/KG/D IN DIET FOR 130 WK (STUDY DURATION: 130 WK)); “inactive; negative” (Species: RAT, Strain/Sex: F344/MALE, Route: ORAL, Dose: 0, 2.5, 5% IN DIET FOR 104 WK (STUDY DURATION: 109 WK), Dose: 0, 2.5, 5% IN DIET FOR 104 WK (STUDY DURATION: 109 WK)); “inactive; negative” (Species: RAT, Strain/Sex: F344/MALE, Route: ORAL, Dose: 0, 25, 75, 225, 675 MG/KG/D IN DIET FOR 122 WK (STUDY DURATION: 122 WK), Dose: 0, 25, 75, 225, 675 MG/KG/D IN DIET FOR 122 WK (STUDY DURATION: 122 WK)).

On to `O=[N+]([O-])c1ccc2c3ccccc3c3cccc4ccc1c2c43`, for which the carcinogen call (Species: MOUSE, Strain/Sex: B6C3F1/MALE, Route: INTRAPERITONEAL, Dose: 0, 400 NMOL IN 35 µL DMSO ON DAYS 1 (1/7 TOTAL DOSE), 8 (2/7 TOTAL DOSE), AND 15 (4/7 TOTAL DOSE) AFTER BIRTH (STUDY DUR) was “inactive; negative”.

These data come from PubChem BioAssay AID1259411 (Chemical Carcinogenesis Research Information System (CCRIS), 2018).
